Here are results for 5 molecules from paper PMC11648915, “Identification and development of TRPM4 antagonists to counteract neuronal excitotoxicity” (iScience, 2024).

The nature of data set [1]: Hepatocyte clearance. In kind it is in vitro ADME. To be noted: cryopreserved hepatocytes, 120 min, read-out: Hep. clearance (converted). How it is done:
Cryopreserved hepatocytes were exposed to test Compounds at a concentration of 1 μM for 120 minutes. Samples were collected at various time points, and percent remaining of test compound was determined using mass spectrometry (LC-MS/MS) to calculate hepatic clearance rate (L/h/kg).

Data set [2] in a line: Microsome clearance (human). In kind it is in vitro ADME. To be noted: human liver microsomes, 45 min, NADPH, read-out: Microsomes (h) clearance (converted). How it is done: Human or mouse liver microsomes were incubated with the test compound at a concentration of 1 μM for 45 min in the presence of cofactor (NADPH in excess). Samples were collected at various time points, and % remaining of test compound was determined using mass spectrometry (LC-MS/MS) to calculate hepatic clearance rate (L/h/kg).
In general terms: Microsomes from liver hold many membrane-bound enzymes, among them those of drug oxidation.

Data set [3] has as its target potassium channel human Ether-a-go-go Related Gene (hERG) (Homo sapiens, UniProt Q12809). The data set is described as follows: hERG channel inhibition. In kind it is cell-based. The text has this: We next used in vitro assays to test absorption, distribution, metabolism, excretion and toxicity (ADMET) parameters for selected compounds. We assessed compound absorption using parallel artificial membrane permeability (PAMPA) and Caco-2 cell permeability assays (cut-off criterion >2 × 10^−6 cm s^−1). […] To assess potential off-target activity of our compounds that could be relevant for safety in humans, we conducted comprehensive in vitro pharmacology using the commercially available and widely used SafetyScreen44 interaction panel[60] covering eight protein families.
A general note: hERG is a cardiac potassium channel; its block is linked to QT prolongation.

The subject of data set [4] is primary mouse neuronal cultures. The data set is described as follows: Glutamate-induced excitotoxicity assay (RealTime-Glo viability). In kind it is cell-based. The note with it: 5 μM, primary mouse neuronal cultures. How it is done: To evaluate the in vitro efficacy of our developed compounds, we employed primary mouse neuronal cultures (PNCs) and conducted glutamate-induced excitotoxicity assays. Cultures were pre-treated with respective Series 1 and Series 3 compounds before glutamate exposure, and neuronal viability was assessed 15 h post-stimulation with glutamate.
Figure 3 Neuroprotective in vitro evaluation and in vivo pharmacokinetics (A) In vitro evaluation of compound activity on glutamate-induced excitotoxicity in mature primary neuronal cultures. Neuronal cultures were treated with 5 μM of the specified compound or vehicle control 5 h prior to glutamate stimulation, assessing compound rescue activity and toxicity relative to minimal (Vehicle +0 μM Glu) and maximal (Vehicle +50 μM Glu) excitotoxicity. Time course of a representative compound with virtual endpoint at 15 h post stimulation and assay window definition (left). Toxicity of compound treated cultures with and without glutamate stimulation (right). Data are represented as mean and 95% confidence interval; n ≥ 4; ∗p < 0.05, ∗∗p < 0.01, ∗∗∗p < 0.001; One-sample Wilcoxon signed-rank test. […] Mitochondrial membrane potential was measured by the mean fluorescence intensity of TMRE normalized to MitoTracker. Data are represented as mean ± SEM; n = 5; paired t-test. (C) In vivo pharmacokinetics of four selected compounds. Time course of compound concentration in the brain, heart, and plasma after a single dose via intraperitoneal (i.p.) or intravenous (i.v.) application. Data are represented as mean ± SEM. Half-life estimates by non-compartmental analysis are shown as vertical line and IC50 value as dashed horizontal line. (D) Compound concentration in the brain relative to respective IC50 concentrations after a single dose via intra-peritoneal or intra-venous routes. Also see Figure S6.
Excitotoxicity assays were performed using primary mouse neuronal cultures between 14 and 17 days in vitro (DIV). Cell viability was measured using RealTime-Glo MT Cell Viability Assay (Promega, catalog no. G9711) according to the manufacture protocol. Compounds were co-administered with RealTime-Glo reagents, and luciferase measurements were conducted using the Tecan-Spark M10 microplate reader with environmental control set to 37°C and 5% CO2. Neuronal cultures were stimulated with either glutamate or vehicle five hours after compound application and monitored for an additional 20 hours. To adjust for inter-well variability, arbitrary light units were normalized to a steady signal prior to glutamate addition for each well. Toxicity was calculated relative to the minimal cell viability at 15 hours post glutamate stimulation and cell viability of the PBS vehicle control.

Data set [5] can be described thus: Parallel Artificial Membrane Permeability Assay (PAMPA). The note with it: pH not given. In kind it is in vitro ADME. How it is done:
Parallel Artificial Membrane Permeability Assay (PAMPA) was performed using artificial lipid membrane layers to assess passive permeability of the test compound. Test compounds were diluted to 200 μM in system buffer at pH 5.0, 6.2 and 7.4. The solutions were filtered and 150 μL transferred to a High Sensitivity 96 well UV plate. This was analysed by UV as the reference plate. A 200 μL sample of the 200 μM solution was transferred to the ‘donor’ plate of the PAMPA pIon sandwich plate system. 200 μL of acceptor sink buffer was transferred to the ‘acceptor’ plate which had been previously treated with GIT-O lipid solution across the well filter. Donor and acceptor plates were sandwiched and kept in a humid environment at room temperature for 16 hours. On completion of the incubation the donor and acceptor plates were separated. 150 μL of solution was transferred from each of the donor and acceptor PAMPA sandwich plates into High Sensitivity 96 well UV plates for analysis by UV. at different time points. The concentration of the compound in the acceptor compartment was determined using mass spectrometry. The permeability coefficient (Papp) was calculated based on the rate of appearance of the compound in the acceptor compartment (nm/s).
For orientation: The PAMPA barrier holds no transporters, so it reflects passive diffusion.

Data set [6] concerns the target T1, CYP 1A2 (Homo sapiens, UniProt P05177).
T1 construct: purchased BD Gentest
T1 sequence (P05177 1-516): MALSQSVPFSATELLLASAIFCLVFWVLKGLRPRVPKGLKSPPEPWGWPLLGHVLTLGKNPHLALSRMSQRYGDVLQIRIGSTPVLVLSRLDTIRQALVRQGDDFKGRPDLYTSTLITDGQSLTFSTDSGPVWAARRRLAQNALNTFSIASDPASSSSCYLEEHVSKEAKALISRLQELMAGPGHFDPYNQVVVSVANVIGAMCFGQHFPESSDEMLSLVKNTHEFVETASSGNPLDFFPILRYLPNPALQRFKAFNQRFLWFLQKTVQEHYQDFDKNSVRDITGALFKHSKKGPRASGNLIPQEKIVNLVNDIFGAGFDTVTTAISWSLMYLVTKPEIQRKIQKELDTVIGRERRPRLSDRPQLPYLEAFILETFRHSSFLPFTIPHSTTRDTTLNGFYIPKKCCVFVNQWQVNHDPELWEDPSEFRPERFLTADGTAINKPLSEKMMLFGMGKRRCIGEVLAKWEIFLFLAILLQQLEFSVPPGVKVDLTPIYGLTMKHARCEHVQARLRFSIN
The data set is described as follows: CYP inhibition assay 1A2. In kind it is in vitro ADME. How it is done:
The half-maximal inhibitory concentration (IC50) for cytochrome P450 (CYP) enzymes was determined using an in vitro enzyme inhibition assay. Recombinant CYP enzymes or human liver microsomes from BD Gentest, in 0.1 M phosphate buffer pH 7.4, containing native CYP enzymes were incubated with the test compound at various concentrations (1, 3, 10 and 30 μM) and containing 0.5% DMSO and 0.1% BSA final concentrations. 1 mM of NADPH cofactor was added and the reaction was started by a rapid increase of temperature until 37°C.

potassium channel human Ether-a-go-go Related Gene (hERG), sequence (Q12809 whole entry): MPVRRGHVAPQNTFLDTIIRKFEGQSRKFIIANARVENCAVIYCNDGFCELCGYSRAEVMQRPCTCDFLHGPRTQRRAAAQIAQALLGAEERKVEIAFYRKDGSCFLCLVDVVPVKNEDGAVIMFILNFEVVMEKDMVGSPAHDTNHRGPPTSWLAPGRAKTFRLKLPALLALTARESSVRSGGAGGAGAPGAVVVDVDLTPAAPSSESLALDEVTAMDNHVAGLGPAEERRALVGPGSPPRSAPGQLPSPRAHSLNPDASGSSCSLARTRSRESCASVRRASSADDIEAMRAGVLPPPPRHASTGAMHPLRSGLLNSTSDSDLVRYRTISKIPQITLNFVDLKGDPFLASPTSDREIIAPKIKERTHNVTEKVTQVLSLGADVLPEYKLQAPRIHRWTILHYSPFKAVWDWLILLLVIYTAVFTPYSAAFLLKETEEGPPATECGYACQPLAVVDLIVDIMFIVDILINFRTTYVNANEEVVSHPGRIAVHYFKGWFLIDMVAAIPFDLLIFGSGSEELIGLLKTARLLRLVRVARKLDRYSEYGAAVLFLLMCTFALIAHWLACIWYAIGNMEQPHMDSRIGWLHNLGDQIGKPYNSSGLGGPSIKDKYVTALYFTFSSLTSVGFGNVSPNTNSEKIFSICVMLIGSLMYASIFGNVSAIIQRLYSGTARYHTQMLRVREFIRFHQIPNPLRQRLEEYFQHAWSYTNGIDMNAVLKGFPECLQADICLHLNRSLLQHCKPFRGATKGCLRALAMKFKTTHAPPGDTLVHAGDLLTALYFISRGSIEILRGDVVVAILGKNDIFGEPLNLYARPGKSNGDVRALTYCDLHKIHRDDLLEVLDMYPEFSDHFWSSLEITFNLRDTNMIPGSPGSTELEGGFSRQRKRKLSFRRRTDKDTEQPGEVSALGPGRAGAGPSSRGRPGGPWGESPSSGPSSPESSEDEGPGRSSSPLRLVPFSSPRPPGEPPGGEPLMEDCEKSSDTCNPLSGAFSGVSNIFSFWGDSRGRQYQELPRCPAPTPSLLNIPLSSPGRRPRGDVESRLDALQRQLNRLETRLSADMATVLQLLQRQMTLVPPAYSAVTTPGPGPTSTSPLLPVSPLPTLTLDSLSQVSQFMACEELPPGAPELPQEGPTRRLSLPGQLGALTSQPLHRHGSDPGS

As for `Fc1cccc(-c2ccccc2NCc2nc3ccccc3o2)c1` [CMP343], the CLint scaled at 1 μM in data set [1] is 322 mL/min/kg; in data set [2] it was 570 mL/min/kg. The molecule further displayed an IC50 in data set [3] of more than 30 µM.
Take `Fc1ccccc1-c1ccccc1NCc1nc2ccccc2o1` [CMP353]: the CLint scaled at 1 μM in data set [1] was 562 mL/min/kg; in data set [2], 605 mL/min/kg. The “Compound toxicity in neuronal cultures” value in data set [4] is “observed toxicity”. Besides, the IC50 in data set [3] was more than 10 µM; in data set [6] it was 1 µM. In addition, in data set [5], the PAMPA perm. entry is reported as “low sensitivity”.
For `c1csc(-c2ccccc2NCc2nc3ccccc3o2)c1` [CMP355], the CLint scaled at 1 μM in data set [1] is 293 mL/min/kg; in data set [2], 558 mL/min/kg. In addition, the “Compound toxicity in neuronal cultures” value in data set [4] is “observed toxicity”. For the same molecule, the IC50 is more than 10 µM in data set [3] and 1.3 µM in data set [6].
As to `Cc1ccsc1-c1ccccc1NCc1nc2ccccc2o1` [CMP369], the CLint scaled at 1 μM in data set [1] was 347 mL/min/kg; in data set [2], 600 mL/min/kg. In addition, in data set [4], the “Compound toxicity in neuronal cultures” value is “observed toxicity”. In data set [3], this molecule gave a concentration for half-maximal inhibition (IC50) of more than 10 µM.
With `Nc1ccccc1-c1ccccc1NCc1nc2ccccc2o1` [CMP457], in data set [2], the CLint scaled at 1 μM was 243 mL/min/kg. For the same molecule, in data set [4], the “Compound toxicity in neuronal cultures” value was “observed toxicity”. Besides, the Papp at 16 h, 200 μM in data set [5] (PAMPA, read-out: PAMPA perm.) was found to be 37.4 ×10⁻⁶ cm/s.

One may read the IC50 as the concentration at which inhibition is half-maximal.
